A short description of data set [1]: HLM, clearance in liver microsomes. It is filed as in vitro ADME, human. As to conditions: for clearance profile by human liver microsomes, comparison: 20 compared with 22, in words; for microsomal CLint: human, human liver microsomes. The method, then:
(§1) In the context of drug discovery, the distribution coefficient of a compound strongly affects how effectively the drug can reach its intended target, as well as efficacy and pharmacokinetic properties. […] To understand the effect of oxetane sulfides on this key parameter, LogD was measured for compounds 21, 2 d, and 17 d. Replacing the thioester functionality with the oxetane sulfide had the positive effect of lowering the LogD by approximately 1 Log unit (Figure 2).
(§2) Figure 2 Comparison of physicochemical parameters. eLogD=distribution coefficient (LogD) measured by HPLC. HLM=Clearance in liver microsomes; RRCK=Cell membrane permeability. TEXT PRINTED IN THE PICTURE: 21: eLogD 4.7 | 2d: eLogD 3.8 | 17d: eLogD 2.1 | 20: HLM: 7.0 μL/min/mg; RRCK: 0.1 10^-6 cm/s | 22: HLM: 7.0 μL/min/mg; RRCK: 1.3 10^-6 cm/s DOUBTS OF THE COPYIST ABOUT THIS PICTURE: 2d, eLogD: 3.8 or 3.6 (small print) / 22, RRCK: 1.3 or 1.5 or 1.8 (small print) / 20 and 22, RRCK: exponent -6 is printed very small and could be -5 or -8

Data set [2] is described as follows: RRCK cell membrane permeability. The class given is in vitro ADME. To be noted: dog, MDCK. On the procedure:
as §1, §2

A further data set concerns RRCK. Put plainly: RRCK cell membrane permeability. The class given is in vitro ADME. To be noted: 20 compared with methane analogue 22, in words. The method, then:
as §1, §2

Data set [3] can be described thus: eLogD, distribution coefficient (LogD) measured by HPLC. The class given is physicochemical. On the procedure: as §1, §2

For `COc1ccc(CSCC(N)C(=O)O)cc1` (stereo not shown) [compound 22], in data set [1], the “clearance profile by human liver microsomes, comparison” value is listed as “determined to be the same” and the microsomal CLint was 7 µL/min/mg. In data set [2], the Papp was 1.3 ×10⁻⁶ cm/s.
For the compound `c1ccc(SC2(c3ccccc3)CCC2)cc1` [13c], the melting point is 46 to 48 °C.
For `COc1ccc(C2(SCC(N)C(=O)O)COC2)cc1` (stereo not shown) [compound 20], in data set [1], the “clearance profile by human liver microsomes, comparison” value was “determined to be the same” and the microsomal CLint was determined as 7 µL/min/mg. Also, the Papp in data set [2] came out at 0.1 ×10⁻⁶ cm/s. For the same compound, in the data set on RRCK, the “cell permeability compared with analogue” value is on record as “slightly lower cell permeability than the corresponding methane analogue 22”.
Regarding `COc1ccc(SC2(c3ccc(OC)cc3)COC2)cc1` [2d], the melting point was in the range of 113 to 116 °C. In data set [3], this compound had a chromatographic logD of 3.8.
For the compound `COc1ccc(C2(S(=O)(=O)c3ccc(OC)cc3)COC2)cc1` [17d], the melting point lay within 158 to 160 °C. Also, the chromatographic logD in data set [3] amounted to 2.1.
For the compound `COc1ccc(SC(=O)c2ccc(OC)cc2)cc1` [compound 21], the chromatographic logD in data set [3] was found to be 4.7.

For orientation: microsomal CLint means the capacity of the preparation to metabolise the compound, expressed as a volume cleared per time. Usually Papp stands for a coefficient for how fast a substance crosses the barrier. Read a high Papp as ready permeation. One may read the melting point as the temperature of the solid-liquid transition. As a reminder, the chromatographic logD is a lipophilicity value derived from retention on a column.

These data come from publication PMC5814735, “Lithium‐Catalyzed Thiol Alkylation with Tertiary and Secondary Alcohols: Synthesis of 3‐Sulfanyl‐Oxetanes as Bioisosteres” (Chemistry (Weinheim an Der Bergstrasse, Germany), 2017).
